From US12679839B2, “Cyclin-dependent kinase 7 (CDK7) non-covalent inhibitors” (JANSSEN PHARMACEUTICA NV, priority 2020, dated 2026)

tested on: RNA polymerase II Serine 5 phosphorylation (Rpb1 CTD), downstream substrate of CDK7; assay: Imaging-based cellular RNA PolII Ser5 phosphorylation assay in A549 cells; assay type: cell-based, human; settings: Homo sapiens, A549, 3 h, challenged with compound for 3 hours, read-out: pRNA polII Ser5 (A549) pIC50 (converted)
Text: Dosing curves were fitted using the following equation to obtain IC50: Y=Bottom+(Top−Bottom)/(1+10^((log IC50−X)*Hill slope)) where X=log10 of the compound concentration; top and bottom can be defined by PC and NC respectively. Imaging-Based Cellular RNA PolII Ser5 Phosphorylation Assay
To evaluate inhibition of CDK7 kinase activity, a 384-well automated imaging assay was used. This assay detects Serine 5 phosphorylation on a unique heptapeptide sequence in the C-terminal domain of Rpb1 subunit of RNA polymerase II, the downstream substrate of CDK7. This heptapeptide sequence is repeated up to 52 times in the CTD of Rpb1.
A549 adenocarcinoma human alveolar basal epithelial cells (ATCC, CCL-185), rabbit Phospho-Rpb1 CTD (Ser5) antibody (D9N51 (Cell Signaling Technology)), DMEM (Sigma), Fetal Bovine Serum (Biowest), L-glutamine (Sigma), Penicillin/Streptomycin (Life Technologies), Sodium Pyruvate (Sigma), Hepes (Sigma), poly-D-lysine coated μclear 384 black plates (Greiner), formaldehyde (PolySciences), D-PBS (Sigma), Methanol (Sigma), Alexa Fluor 488 goat anti rabbit IgG secondary antibody (Life Technologies), HCS CellMask™ Deep Red stain (Life Technologies), Hoechst 33258 (Invitrogen).
RNA Polymerase II Serine 5 phosphorylation was detected using a specific rabbit Phospho-Rpb1 CTD (Ser5) antibody. A549 adenocarcinoma human alveolar basal epithelial cells were seeded in 20 μl medium (DMEM supplemented with 1% Fetal Bovine Serum (heat inactivated 30′ 56° C.), 2 mM L-glutamine, 50 U/ml penicillin 50 μg/ml streptomycin, 1 mM sodium pyruvate and 50 mM hepes) at 1000 cells/well and cultured in poly-D-lysine coated μclear 384 black plates for 20 hours at 37° C. and 5% CO2.
After incubation cells were challenged with compound for 3 hours at 37° C. and 5% CO2. DMSO was used as high control and as low control 10 μM of LDC4297 reference compound was used. 40 nl of test compounds and controls were spotted in cell plates using Echo Liquid Handler (Echo 550, Labcyte). Incubation was followed by 20 minutes fixation with 20 μl 10% formaldehyde at room temperature. Medium/formaldehyde solution was removed, plates were washed 3 times with 30 μl D-PBS (w/o Ca^2+ and Ma^2+) and permeabilization was done by adding 20 μl ice cold methanol for 20 minutes. Cells were washed again 3 times with 30 μl D-PBS and 20 μl blocking buffer (25 ml fetal bovine serum in 500 ml D-PBS) was added for 1 hour.
After removing blocking buffer 20 μl 1/1000 primary antibody rabbit. Phospho-Rpb1 CTD (Ser5) antibody was added which binds to the phosphorylated Serine5 of the heptapeptide sequences in the CTD of Rpb1. Primary antibody was removed, and plates were washed 3 times with 30 μl D-PBS followed by addition of 20 μl 1/2000 Alexa Fluor 488 goat anti rabbit IgG secondary antibody for final detection of Phospho-Rpb1 CTD (Ser5) together with 1/5000 HCS CellMask™ Deep Red stain for membrane staining and 1/5000 Hoechst 33258 for nucleus staining. Last, plates were washed 2 times with 30 μl D-PBS and wells were filled with 40 μL D-PBS, plates were sealed (Thermowell sealing tape) and stored at 4° C. until reading. Plates were read with Opera Phenix (Perkin Elmer) with 10× air objective. Data were calculated and analyzed in Phaedra.
IC50 values were calculated using the following formula:
Average value of all HC's and all LC's are used for normalizations. % Effect=100−(sample−LC)/(HC−LC)×100% Control=(sample/HC)×100
A best-fit curve is fitted by a minimum sum of squares method to the plot of % Control vs. compound concentration. From this an IC50 value can be obtained. An estimate of the slope of the plot in terms of the Hill coefficient is also obtained.

For `C[C@@H]1Cc2cnc(N[C@H]3CCOC4(CCCC4)C3)nc2CN1C(=O)[C@H]1CCN(C)C[C@@H]1c1ccccc1` (relative stereo) [Compound 16], which IC50 is on record?
The IC50 was 40.7 nM.

Which IC50 does the source give for `C[C@@H]1Cc2cnc(N[C@H]3COc4ccccc43)nc2CN1C(=O)[C@H]1CCN(C)C[C@@H]1c1ccccc1` (relative stereo) [Compound 17] here?
The IC50 was 363 nM.

`C[C@@H]1Cc2cnc(N[C@@H]3COc4ccccc43)nc2CN1C(=O)[C@H]1CCN(C)C[C@@H]1c1ccccc1` (relative stereo) [Compound 18] was tested. Which IC50 did it give?
Its IC50 is 490 nM.

With `[2H]C([2H])([2H])c1cccc([C@@H]2CN(C)CC[C@H]2C(=O)N2Cc3nc(NCc4ccn(C)n4)ncc3C[C@H]2C)c1` (relative stereo) [Compound 99] as the molecule, how does the IC50 read?
The IC50 was 603 nM.

Which IC50 does the source give for `[2H]C([2H])([2H])c1cccc([C@H]2CN(C)CC[C@@H]2C(=O)N2Cc3nc(NCc4ccn(C)n4)ncc3C[C@H]2C)c1` (relative stereo) [Compound 100] here?
Its IC50 is about 26.3 nM.

`C[C@@H]1Cc2cnc(NCc3ccn(C)n3)nc2CN1C(=O)[C@H]1CCN(C)C[C@@H]1c1cccc(C2CC2)c1` (relative stereo) [Compound 121] was tested. Which IC50 did it give?
The IC50 was under 2.45 nM.

Which IC50 does the source give for `C[C@@H]1Cc2cnc(NCc3ccn(C)n3)nc2CN1C(=O)[C@@H]1CCN(C)C[C@H]1c1cccc(C(F)F)c1` (relative stereo) [Compound 123] here?
The IC50 was 2400 nM.

How did the IC50 turn out when `C[C@@H]1Cc2cnc(NCc3ccn(C)n3)nc2CN1C(=O)[C@H]1CCN(C)C[C@@H]1c1cccc(C(F)F)c1` (relative stereo) [Compound 124] was run?
Its IC50 is about 44.7 nM.

`CC(C)Oc1cccc([C@@H]2CN(C)CC[C@H]2C(=O)N2Cc3nc(NCc4ccn(C)n4)ncc3C[C@H]2C)c1` (relative stereo) [Compound 138a] was tested. Which IC50 did it give?
Its IC50 is over 10000 nM.

With `CC(C)Oc1cccc([C@H]2CN(C)CC[C@@H]2C(=O)N2Cc3nc(NCc4ccn(C)n4)ncc3C[C@H]2C)c1` (relative stereo) [Compound 138b] as the molecule, how does the IC50 read?
Its IC50 is 182 nM.

For `C[C@@H]1CN(C)CC[C@H]1C(=O)N1Cc2nc(NCc3ccn(C)n3)ncc2C[C@H]1C` (relative stereo) [Compound 147], which IC50 is on record?
The IC50 was 813 nM.

Which IC50 does the source give for `CC(C)N1CC[C@H](C(=O)N2Cc3nc(NC4CCOCC4)ncc3C[C@H]2C)[C@@H](c2ccccc2)C1` (single isomer, unassigned) [Compound 157] here?
The IC50 was 178 nM.

How did the IC50 turn out when `CCN1CC[C@H](C(=O)N2Cc3nc(NC4CCOCC4)ncc3C[C@H]2C)[C@@H](c2ccccc2)C1` (single isomer, unassigned) [Compound 158] was run?
Its IC50 is 77.6 nM.

Which IC50 does the source give for `C[C@@H]1Cc2cnc(NC3CCOCC3)nc2CN1C(=O)[C@H]1CCN(C2COC2)C[C@@H]1c1ccccc1` (single isomer, unassigned) [Compound 159] here?
The IC50 was over 10000 nM.

For `[2H]C([2H])([2H])N1CC[C@@H](C(=O)N2Cc3cc(NCc4ccn(C)n4)ncc3C[C@@H]2C)[C@H](c2ccccc2)C1` (single isomer, unassigned) [Compound 178], which IC50 is on record?
The IC50 was 3720 nM.

How did the IC50 turn out when `Cc1cccc([C@@H]2CN(C)CC[C@H]2C(=O)N2Cc3cc(Nc4cnn(C)c4)ncc3C[C@@H]2C)c1` (single isomer, unassigned) [Compound 179] was run?
Its IC50 is about 83.2 nM.

For `CO[C@H]1CC[C@H](Nc2ncc3c(n2)CN(C(=O)[C@H]2CCN(C)C[C@@H]2c2ccccc2)C(C)(C)C3)CC1` (single isomer, unassigned) [Compound 190], which IC50 is on record?
The IC50 was 240 nM.

With `CCO[C@H]1CC[C@H](Nc2ncc3c(n2)CN(C(=O)[C@H]2CCN(C)C[C@@H]2c2ccccc2)[C@H](C)C3)CC1` [Compound 19] as the molecule, how does the IC50 read?
Its IC50 is 41.7 nM.

With `C[C@@H]1Cc2cnc(Nc3ccnc(C4CC4)c3)nc2CN1C(=O)[C@H]1CCN(C)C[C@@H]1c1ccccc1` [Compound 76] as the molecule, how does the IC50 read?
The IC50 was about 33.1 nM.

Which IC50 does the source give for `C[C@@H]1Cc2cnc(Nc3cnn(CC4CC4)c3)nc2CN1C(=O)[C@H]1CCN(C)C[C@@H]1c1ccccc1` [Compound 80] here?
The IC50 was 18.6 nM.

With `Cc1nn(C)c(C)c1Nc1ncc2c(n1)CN(C(=O)[C@H]1CCN(C)C[C@@H]1c1ccccc1)[C@H](C)C2` [Compound 81] as the molecule, how does the IC50 read?
The IC50 was 1350 nM.

Which IC50 does the source give for `C[C@@H]1Cc2cnc(Nc3cn(C)nc3C(F)(F)F)nc2CN1C(=O)[C@H]1CCN(C)C[C@@H]1c1ccccc1` [Compound 84] here?
Its IC50 is 1120 nM.

`C[C@@H]1Cc2cnc(Nc3cnn(CC(F)F)c3)nc2CN1C(=O)[C@H]1CCN(C)C[C@@H]1c1ccccc1` [Compound 85] was tested. Which IC50 did it give?
Its IC50 is about 30.9 nM.

For `Cc1nn(C)cc1Nc1ncc2c(n1)CN(C(=O)[C@H]1CCN(C)C[C@@H]1c1ccccc1)[C@H](C)C2` [Compound 86], which IC50 is on record?
Its IC50 is 447 nM.

For `Cc1c(Nc2ncc3c(n2)CN(C(=O)[C@H]2CCN(C)C[C@@H]2c2ccccc2)[C@H](C)C3)cnn1C` [Compound 87], which IC50 is on record?
Its IC50 is 661 nM.

`C[C@@H]1Cc2cnc(Nc3cnn(C4CCCC4)c3)nc2CN1C(=O)[C@H]1CCN(C)C[C@@H]1c1ccccc1` [Compound 88] was tested. Which IC50 did it give?
The IC50 was 28.8 nM.

`Cc1cccc([C@H]2CN(C)CC[C@@H]2C(=O)N2Cc3nc(Nc4ccnc(C)c4)ncc3C[C@H]2C)c1` [Compound 135] was tested. Which IC50 did it give?
The IC50 was about 20.4 nM.

For `C[C@H]1Cc2cnc(NC3CCOCC3)nc2[C@H](C)N1C(=O)[C@H]1CCN(C)C[C@@H]1c1ccccc1` [Compound 196], which IC50 is on record?
Its IC50 is 776 nM.

Which IC50 does the source give for `CN1CC[C@H](C(=O)N2Cc3nc(NCc4ccn(C)n4)ncc3[C@@H]3C[C@@H]32)[C@@H](c2ccccc2)C1` [Compound 198] here?
Its IC50 is 234 nM.

same assay, conditions: challenged with compound for 3 hours

How did the “pRNA polII Ser5 (A549) pIC50” value turn out when `[2H]C([2H])([2H])c1cccc([C@@H]2CN(C)CC[C@H]2C(=O)N2Cc3nc(Nc4cnn(C)c4)ncc3C[C@H]2C)c1` (relative stereo) [Compound 97] was run?
Its value is 6.23.

`[2H]C([2H])([2H])c1cccc([C@@H]2CN(C)CC[C@H]2C(=O)N2Cc3nc(Nc4cnn(C)c4)ncc3C[C@H]2C)c1` (relative stereo) [Compound 98] was tested. Which “pRNA polII Ser5 (A549) pIC50” value did it give?
Its value is about 7.6.
